Experimental data from ChEMBL document CHEMBL1201862, “PubChem BioAssay data set” (2004).
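Protocol summary: plate cells (96-well), add compound at 5 concentrations, incubate 48 h, interpolate endpoints linearly. Here, GI50 denotes the concentration required for 50% inhibition of growth.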 Calls of active or inactive are those of the source. Cut-off read from the data, not from the text of the source: active = GI50 up to about 1.1 µM and inactive = higher.

Experiments:
Test in all cases: inhibition of tumour cell growth, NCI panel, 48 h
DU-145 = test system: DU-145
HCT-15 = test system: HCT-15
HL-60 = test system: HL-60
K562 = test system: K562
LOX IMVI = test system: LOX IMVI
MDA-MB-435 = test system: MDA-MB-435
MOLT-4 = test system: MOLT-4
NCI-H226 = test system: NCI-H226
NCI-H460 = test system: NCI-H460
NCI-H522 = test system: NCI-H522
OVCAR-4 = test system: OVCAR-4
OVCAR-5 = test system: OVCAR-5
PC-3 = test system: PC-3
RPMI-8226 = test system: RPMI-8226
SF-539 = test system: SF-539
SK-MEL-28 = test system: SK-MEL-28
SN12C = test system: SN12C
SR = test system: SR
T47D = test system: T47D
U-251 = test system: U-251

| Structure (SMILES) | GI50 (DU-145) | GI50 (HCT-15) | GI50 (HL-60) | GI50 (K562) | GI50 (LOX IMVI) | GI50 (MDA-MB-435) | GI50 (MOLT-4) | GI50 (NCI-H226) | GI50 (NCI-H460) | GI50 (NCI-H522) | GI50 (OVCAR-4) | GI50 (OVCAR-5) | GI50 (PC-3) | GI50 (RPMI-8226) | GI50 (SF-539) | GI50 (SK-MEL-28) | GI50 (SN12C) | GI50 (SR) | GI50 (T47D) | GI50 (U-251) |
| --- | --- | --- | --- | --- | --- | --- | --- | --- | --- | --- | --- | --- | --- | --- | --- | --- | --- | --- | --- | --- |
| C[N+]1(CCN=C=NC2CCCCC2)CCOCC1 | > 100 µM (inactive) | > 100 µM | > 100 µM (inactive) | > 100 µM (inactive) | > 100 µM (inactive) | > 100 µM (inactive) | > 100 µM (inactive) | > 100 µM (inactive) | > 100 µM (inactive) | > 100 µM (inactive) | > 100 µM (inactive) | > 100 µM (inactive) | > 100 µM (inactive) | > 100 µM (inactive) | > 100 µM (inactive) | > 100 µM (inactive) | 22.9 µM (inactive) | > 100 µM (inactive) | > 100 µM (inactive) | > 100 µM (inactive) |
| CO[C@H](C)[C@](O)(C(=O)OCC1=CCN2CC[C@@H](O)[C@H]12)C(C)C | > 100 µM (inactive) | 55.2 µM | > 10 µM (inactive) | > 100 µM (inactive) | > 100 µM (inactive) | > 100 µM (inactive) | > 100 µM (inactive) | > 100 µM (inactive) | 28.5 µM (inactive) | > 100 µM (inactive) | > 100 µM (inactive) | > 100 µM (inactive) | > 100 µM (inactive) | > 100 µM (inactive) | > 100 µM (inactive) | > 100 µM (inactive) | > 100 µM (inactive) | > 100 µM (inactive) | > 100 µM (inactive) | > 100 µM (inactive) |
| O=C(c1c(Cl)cc(Cl)cc1Cl)N(Cc1cccnc1)C(=S)N(Cc1cccnc1)C(=O)c1c(Cl)cc(Cl)cc1Cl | 4.62 µM (inactive) | 3.05 µM | 7.23 µM (inactive) | 4.32 µM (inactive) | 3.65 µM (inactive) | 8.67 µM (inactive) | 6.84 µM (inactive) | 19 µM (inactive) | 13.4 µM (inactive) | 6.89 µM (inactive) | 2.19 µM (inactive) | 18.5 µM (inactive) | 5.96 µM (inactive) | 1.27 µM (inactive) | 11 µM (inactive) | 11 µM (inactive) | 5.68 µM (inactive) | 6.56 µM (inactive) | 14.4 µM (inactive) | 9.02 µM (inactive) |
| c1cc(-c2ccc(Oc3ccc(-c4ccncc4)cc3)cc2)ccn1 | 11.4 µM (inactive) | 3.43 µM | 2.18 µM (inactive) | 2.5 µM (inactive) | 9.18 µM (inactive) | 1.85 µM (inactive) | 2.99 µM (inactive) | 27.6 µM (inactive) | 3.93 µM (inactive) | 6.12 µM (inactive) | 5.47 µM (inactive) | 29.2 µM (inactive) | 27 µM (inactive) | 1.67 µM (inactive) | 5.4 µM (inactive) | > 26.7 µM (inactive) | 23.3 µM (inactive) | 3.15 µM (inactive) | 5.13 µM (inactive) | 4.01 µM (inactive) |
| COc1ccc(C[C@@H]2NC[C@@H](O)[C@@H]2OC(C)=O)cc1 | 0.0191 µM (active) | 0.0171 µM | 0.00374 µM (active) | 0.0104 µM (active) | 0.00403 µM (active) | 0.0168 µM (active) | 0.0105 µM (active) | 0.0358 µM (active) | 0.0142 µM (active) | 0.0232 µM (active) | 0.00957 µM (active) | 0.0198 µM (active) | 0.0196 µM (active) | 0.0296 µM (active) | 0.0234 µM (active) | 0.0206 µM (active) | 0.0229 µM (active) | 0.0164 µM (active) | 0.0227 µM (active) | 0.0173 µM (active) |
| Cn1c2ccccc2c2cc(-c3ccccc3)c3c(c21)C(=O)C=CC3=O | 82.8 µM (inactive) | 15.2 µM | 4.52 µM (inactive) | 5.31 µM (inactive) | 18.6 µM (inactive) | 15.1 µM (inactive) | 3.59 µM (inactive) | 15.2 µM (inactive) | 20.6 µM (inactive) | 17.5 µM (inactive) | 18.8 µM (inactive) | 19 µM (inactive) | 18.4 µM (inactive) | 2.45 µM (inactive) | 27.3 µM (inactive) | 20.4 µM (inactive) | 21.7 µM (inactive) | 3.31 µM (inactive) | 9.55 µM (inactive) | 18.8 µM (inactive) |
| OC1c2[nH]c3ccccc3c2CCN2CCCCC12 (stereo not given) | > 100 µM (inactive) | > 100 µM | > 100 µM (inactive) | > 100 µM (inactive) | > 100 µM (inactive) | > 100 µM (inactive) | > 100 µM (inactive) | > 100 µM (inactive) | > 100 µM (inactive) | > 100 µM (inactive) | > 100 µM (inactive) | > 100 µM (inactive) | > 100 µM (inactive) | > 100 µM (inactive) | > 100 µM (inactive) | > 100 µM (inactive) | > 100 µM (inactive) | > 100 µM (inactive) | > 100 µM (inactive) | > 100 µM (inactive) |
| O=C(O)C1(Cc2ccccc2)Cc2cc3c(cc2C1)CCC3 | > 100 µM (inactive) | 52.6 µM | 48.9 µM (inactive) | 72.9 µM (inactive) | > 100 µM (inactive) | > 100 µM (inactive) | > 100 µM (inactive) | > 100 µM (inactive) | 86.9 µM (inactive) | > 100 µM (inactive) | > 100 µM (inactive) | > 100 µM (inactive) | > 100 µM (inactive) | 58.1 µM (inactive) | > 100 µM (inactive) | > 100 µM (inactive) | > 100 µM (inactive) | > 100 µM (inactive) | 18.3 µM (inactive) | 66.4 µM (inactive) |
| O=c1ssc(Cl)c1Nc1c(Cl)ssc1=O | 17.3 µM (inactive) | 18.6 µM | 7.85 µM (inactive) | 6.44 µM (inactive) | 14.8 µM (inactive) | 18 µM (inactive) | 2.25 µM (inactive) | 28.4 µM (inactive) | 18.8 µM (inactive) | 19.6 µM (inactive) | 18.2 µM (inactive) | 19.4 µM (inactive) | 18.9 µM (inactive) | 9.08 µM (inactive) | 25.1 µM (inactive) | 28.4 µM (inactive) | 19.5 µM (inactive) | 3.62 µM (inactive) | 9.2 µM (inactive) | 19.5 µM (inactive) |
| C=C(C)C(O)CCC1(C)C=Cc2c(c(C)cc3c2[nH]c2ccccc23)O1 (stereo not given) | 12.6 µM (inactive) | 4.26 µM | 6.68 µM (inactive) | 6.25 µM (inactive) | 4.12 µM (inactive) | 8.41 µM (inactive) | 5.75 µM (inactive) | 7.01 µM (inactive) | 5.42 µM (inactive) | 4.91 µM (inactive) | 16.5 µM (inactive) | 4.2 µM (inactive) | 6.55 µM (inactive) | 9.77 µM (inactive) | 4.27 µM (inactive) | 16.7 µM (inactive) | 12.8 µM (inactive) | 8.47 µM (inactive) | 7.83 µM (inactive) | 5.01 µM (inactive) |
